The source of these data is ChEMBL document CHEMBL1128647, “Novel open-ring analogues of N5,N10-methylenetetrahydrofolic acid with selective activity against brain tumor” (1995).

What is called GI50 is the concentration giving 50% growth inhibition. Read a high GI50 as lower sensitivity of the cells.

The structures appear in SMILES notation.

Common to all, as to format: functional
Assay [1] relates to Renal cancer cell line. Kind of assay: Cytotoxic activity against human renal cancer cell line.
Assay [2] deals with SNB-75. Kind of assay: Cytotoxic activity against human CNS SNB-75 cancer cell line.
Assay [3] relates to Prostatic carcinoma cell. Put plainly: Cytotoxic activity against human prostate cancer cell line.
For assay [4], the system named is Lung cancer cell line. Kind of assay: Cytotoxic activity against human lung cancer cell line.
Assay [5] concerns Ovarian cancer cell line. Put plainly: Cytotoxic activity against human ovarian cancer cell line.
Assay [6] relates to Breast cancer cell line. Put plainly: Cytotoxic activity against human breast cancer cell line.
In assay [7] the test system is Colon cancer cell line. Kind of assay: Cytotoxic activity against human colon cancer cell line.
For assay [8], the system named is U-251. Put plainly: Cytotoxic activity against human CNS U251 cancer cell line.

Take `Cc1nc(N)nc(O)c1N1CCN(c2ccc([N+](=O)[O-])cc2)CC1`: the concentration for 50% growth inhibition (GI50) in assay [1] is above 100 µM; in assay [2], below 0.01 µM; in assay [3] it was above 100 µM; in assay [4] it was above 100 µM; in assay [5] it was above 100 µM; in assay [6], above 100 µM. This molecule came in with a GI50 in assay [7] above 100 µM.
On to `Cc1nc(N)nc(O)c1N1CCN(c2ccc(C#N)cc2)CC1`, for which the GI50 was above 100 µM in assay [1]; 0.04 µM in assay [2]; above 0.0001 µM in assay [3]; above 100 µM in assay [4]; 93 µM in assay [5]; above 0.0001 µM in assay [6]. In assay [7], the GI50 was above 0.0001 µM.
As for `Cc1nc(N)nc(O)c1N1CCN(c2ccc(C(=O)NC(CCC(=O)O)C(=O)O)cc2)CC1` (centres undefined), the 50% growth inhibitory concentration (GI50) in assay [1] is above 0.0001 µM; in assay [2], below 0.01 µM; in assay [3], above 100 µM; in assay [4] it was above 100 µM; in assay [5], above 100 µM; in assay [6], above 100 µM. The GI50 in assay [7] was above 100 µM.
Consider `CCOC(=O)CCC(NC(=O)c1ccc(N2CCN(c3c(C)nc(N)nc3O)CC2)cc1)C(=O)OCC` (centres undefined), for which the GI50 in assay [1] is above 100 µM; in assay [2], below 0.01 µM; in assay [3], above 100 µM; in assay [4] it was above 100 µM; in assay [5], above 0.0001 µM; in assay [6], above 100 µM. Also, the GI50 in assay [7] was above 100 µM.
As to `Cc1nc(N)nc(O)c1N1CCN(c2ccc(S(=O)(=O)N(Cc3ccccc3)Cc3ccccc3)cc2)CC1`, the GI50 in assay [1] was 3.1 µM; in assay [8], 3.68 µM; in assay [3] it was 1.9 µM; in assay [4], 4.8 µM; in assay [5], 0.7 µM; in assay [6], 2.1 µM. In assay [7], the 50% growth inhibitory concentration (GI50) was found to be 55 µM.
Regarding `Cc1nc(N)nc(O)c1N1CCN(c2ccc(S(N)(=O)=O)cc2)CC1`, the GI50 in assay [1] was above 100 µM; in assay [2], 0.1 µM; in assay [3], above 100 µM; in assay [4], above 0.0001 µM; in assay [5], above 100 µM; in assay [6], above 100 µM. This molecule also yielded a GI50 in assay [7] above 100 µM.
As for `Cc1nc(N)nc(O)c1N1CCN(c2ccc(C(=O)O)cc2)CC1`, the GI50 is 1.39 µM in assay [1]; above 100 µM in assay [2]; above 100 µM in assay [3]; above 100 µM in assay [4]; above 100 µM in assay [5]; above 100 µM in assay [6]. This molecule had a concentration for 50% growth inhibition (GI50) in assay [7] above 100 µM.
